# Experimental data from US11390617B2, “Methods of treating non-Hodgkin lymphoma using 2-(2,6-dioxopiperidin-3-yl)-4-((2-fluoro-4-((3-morpholinoazetidin-1-yl)methyl)benzyl)amino)isoindoline-1,3-dione” (Celgene Corporation, priority 2019, dated 2022).
# Key:
# Assay in all cases: NHL cell line viability/apoptosis 384-well flow cytometry assay
# Format in all cases: cell-based
# [1] = tested on: DB; details: 120 hours
# Description: (§1) The following exemplary anti-proliferative assay uses exemplary non-Hodgkin lymphoma (NIL) cell lines (including diffuse large B-cell lymphoma (DLBCL), follicular lymphoma (FL), and mantle cell lymphoma (MCL)) (Table 5). The in vitro growth inhibitory activity of Compound 1 described herein was evaluated using a 384-well flow cytometry assay.
# (§2) The cell lines in Table 5 were plated in 384-well flat bottom plates and assessed with increasing concentrations of compound ranging from 0.00015 to 10 μM or dimethyl sulfoxide (DMSO) control. The final concentration of DMSO was 0.1% (v/v). Following the addition of Compound 1 or DMSO and incubation for 120 hours, cell number and cell death were analyzed by flow cytometry (Attune®, Thermo Fisher) using Annexin V and the live-cell impermeant DNA dye, DRAQ7. Phosphatidylserine translocates from the inner layer to the outer layer of the cell membrane early in apoptosis and Annexin V binds to the exposed phosphatidylserine found on the surface of an apoptotic cell. The vital dye DRAQ7 is excluded by intact live cells and only stains cells that have died as a result of apoptosis or necrosis.
# (§3) Flow cytometry data analysis was then performed using the Flow Jo_v10 software to determine the number of viable cells (Annexin V and DRAQ7 double negative staining cells) and percentage of apoptotic cells (Annexin V positive cells) for each condition. The live cell count for every concentration was normalized to the DMSO control (considered as 100%) to calculate the percentage of viable cells remaining after treatment and graphed using GraphPad Prism 7.03. The IC50 (50% inhibitory concentration) and Emax (maximum efficacy achieved) values were then calculated by performing nonlinear regression curve fitting using log(inhibitor) vs. normalized response—variable slope analysis on GraphPad Prism 7.03. Area under the curve (AUC) was calculated by performing area under curve analysis on GraphPad Prism 7.03. Similarly, for apoptosis analysis, the percentage of apoptosis combining both “early” (Annexin V positive and DRAQ7 negative) and “late” apoptosis (Annexin V and DRAQ7 positive) cell gates relative to DMSO was graphed using GraphPad Prism 7.03. The AUC, EC50 (concentration of Compound 1 that produces half-maximal apoptosis response) and Ymax (maximal percentage of apoptosis achieved) values from apoptosis curves were calculated by performing area under curve analysis and nonlinear regression curve fitting using log(agonist) vs. normalized response—Variable slope analysis on GraphPad Prism 7.03.
# (§4) In Table 6, dose-response proliferation curves for the panel of NHL cell lines and non-linear curve-fit regression were used to determine IC50, AUC, and Emax for % viable cells (Emax for viability varies between 100 at low doses and 0 at high doses, which corresponds to inhibition of all viable cells), and dose-response apoptosis curves were used to determine the EC50, AUC, and Ymax for % apoptosis (Ymax for apoptosis varies from 0 at low doses and 100 at higher doses which corresponds to death of all cells). Tumor cells were exposed to serial dilutions (0.00015 to 10 μM) of Compound 1 or dimethyl sulfoxide (DMSO) control for 5 days. Viability and apoptosis for all cell lines was determined by Annexin V/[…] flow cytometry.
# [2] = tested on: DOHH2; details: DOHH2 (FL), 120 hours
# Description: as §1, §2, §3, §4
# [3] = tested on: KARPAS-1106P; details: KARPAS-1106P (DLBCL), 120 hours
# Description: as §1, §2, §3, §4
# [4] = tested on: Mino; details: Mino (MCL), 120 hours
# Description: as §1, §2, §3, §4
# [5] = tested on: RL; details: RL (FL), 120 hours
# Description: as §1, §2, §3, §4
# [6] = tested on: SU-DHL-16; details: SU-DHL-16 (DLBCL), 120 hours
# Description: as §1, §2, §3, §4
# [7] = tested on: SU-DHL-2; details: SU-DHL-2 (DLBCL), 120 hours
# Description: as §1, §2, §3, §4
# [8] = tested on: SU-DHL-6; details: SU-DHL-6 (DLBCL), 120 hours
# Description: as §1, §2, §3, §4
# [9] = tested on: SU-DHL-8; details: SU-DHL-8 (DLBCL), 120 hours
# Description: as §1, §2, §3, §4
# [10] = tested on: U-2940; details: U-2940 (DLBCL), 120 hours
# Description: as §1, §2, §3, §4
# [11] = tested on: ULA; details: ULA (DLBCL), 120 hours
# Description: as §1, §2, §3, §4
# [12] = tested on: WILL-1; details: WILL-1 (DLBCL), 120 hours
# Description: as §1, §2, §3, §4
# [13] = Homo sapiens, read-out: IC50 (% Viable Cells)
# [14] = read-out: IC50 (% Viable Cells)
smiles,measurement,setting,value
"O=C1CC[C@H](N2C(=O)c3cccc(NCc4ccc(CN5CC(N6CCOCC6)C5)cc4F)c3C2=O)C(=O)N1 [Compound 1, (S)-2-(2,6-dioxopiperidin-3-yl)-4-((2-fluoro-4-((3-morpholinoazetidin-1-yl)methyl)benzyl)amino)isoindoline-1,3-dione]",AUC (% Viable Cells),[1],941.4
same,AUC (Apoptosis),[1],80.31
same,Emax (% Viable Cells),[1],89.46%
same,Ymax (Apoptosis),[1],11.62%
same,EC50,[1]; Homo sapiens,68.8 nM
same,IC50,[1]; [13],10000 nM
same,AUC (% Viable Cells),[2],6.902
same,AUC (Apoptosis),[2],923.9
same,Emax (% Viable Cells),[2],0.2066%
same,Ymax (Apoptosis),[2],95.1%
same,EC50,"[2]; Homo sapiens, DOHH-2",17.5 nM
same,IC50,"[2]; Homo sapiens, DOHH-2, read-out: IC50 (% Viable Cells)",2.8 nM
same,EC50,[3]; Homo sapiens,91.8 nM
same,IC50,[3]; [13],17.5 nM
same,AUC (% Viable Cells),[3],22.22
same,AUC (Apoptosis),[3],885.2
same,Emax (% Viable Cells),[3],0.1698%
same,Ymax (Apoptosis),[3],97.08%
same,EC50,[4]; Homo sapiens,2.05 nM
same,IC50,[4]; [13],5.78 nM
same,AUC (% Viable Cells),[4],62.67
same,AUC (Apoptosis),[4],968.2
same,Emax (% Viable Cells),[4],5.638%
same,Ymax (Apoptosis),[4],97.04%
same,EC50,[5]; Homo sapiens,157 nM
same,IC50,[5]; [13],8.76 nM
same,AUC (% Viable Cells),[5],234.8
same,AUC (Apoptosis),[5],115.9
same,Emax (% Viable Cells),[5],21.55%
same,Ymax (Apoptosis),[5],13.93%
same,EC50,[6]; Homo sapiens,662 nM
same,IC50,[6]; [13],154 nM
same,AUC (% Viable Cells),[6],149.7
same,AUC (Apoptosis),[6],492.6
same,Emax (% Viable Cells),[6],7.137%
same,Ymax (Apoptosis),[6],60.79%
same,EC50,[7]; Homo sapiens,6.24 nM
same,IC50,[7]; [13],1.26 nM
same,AUC (% Viable Cells),[7],5.586
same,AUC (Apoptosis),[7],928.4
same,Emax (% Viable Cells),[7],0.2145%
same,Ymax (Apoptosis),[7],95.98%
same,EC50,[8]; Homo sapiens,104 nM
same,IC50,[8]; [13],32.5 nM
same,AUC (% Viable Cells),[8],19.94
same,AUC (Apoptosis),[8],920.7
same,Emax (% Viable Cells),[8],0.2469%
same,Ymax (Apoptosis),[8],95.92%
same,EC50,[9]; Homo sapiens,602 nM
same,IC50,[9]; [13],486 nM
same,AUC (% Viable Cells),[9],119.5
same,AUC (Apoptosis),[9],363.2
same,Emax (% Viable Cells),[9],2.081%
same,Ymax (Apoptosis),[9],85.44%
same,EC50,[10]; Homo sapiens,31.4 nM
same,IC50,[10]; [13],6.31 nM
same,AUC (% Viable Cells),[10],70.43
same,AUC (Apoptosis),[10],792.5
same,Emax (% Viable Cells),[10],5.192%
same,Ymax (Apoptosis),[10],82.19%
same,AUC (% Viable Cells),[11],0.5518
same,AUC (Apoptosis),[11],995.3
same,EC50,[11],1.79 nM
same,Emax (% Viable Cells),[11],0.02523%
same,Ymax (Apoptosis),[11],99.76%
same,IC50,[11]; [14],0.99 nM
same,AUC (% Viable Cells),[12],233.7
same,AUC (Apoptosis),[12],549.4
same,EC50,[12],2520 nM
same,Emax (% Viable Cells),[12],4.216%
same,Ymax (Apoptosis),[12],79.51%
same,IC50,[12]; [14],817 nM
